Results reported in patent publication US9174952B2, “Substituted 3-thiazoloamino-propionic acid derivatives and their use as pharmaceuticals” (SANOFI, priority 2011, dated 2015).

Biological target: T1, Recombinant human cathepsin A (Homo sapiens, UniProt P10619)
T1 construct: Recombinant human cathepsin A (residues 29-480, with a C-terminal 10-His tag); 10-His (C); purchased R&D Systems 1049-SE
T1 sequence (P10619 29-326 limits assumed): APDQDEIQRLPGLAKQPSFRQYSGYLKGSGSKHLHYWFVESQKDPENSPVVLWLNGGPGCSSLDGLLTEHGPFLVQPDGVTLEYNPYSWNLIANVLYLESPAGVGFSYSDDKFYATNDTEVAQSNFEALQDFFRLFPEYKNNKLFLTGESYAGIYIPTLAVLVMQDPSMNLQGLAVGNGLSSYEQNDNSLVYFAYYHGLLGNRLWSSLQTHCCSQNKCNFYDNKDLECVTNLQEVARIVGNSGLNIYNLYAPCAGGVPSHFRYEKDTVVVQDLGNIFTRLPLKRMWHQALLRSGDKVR
T1 sequence (P10619 327-480 limits assumed): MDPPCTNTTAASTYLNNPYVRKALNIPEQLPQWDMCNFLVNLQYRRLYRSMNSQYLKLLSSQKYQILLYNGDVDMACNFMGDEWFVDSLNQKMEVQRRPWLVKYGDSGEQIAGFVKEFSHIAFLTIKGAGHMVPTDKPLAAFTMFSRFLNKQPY
Assay: Cathepsin A inhibitory activity
Type: biochemical
Conditions: activated recombinant human cathepsin A 833 ng/ml, Bodipy FL-labeled bradykinin substrate 2 μM, pH 5.5, room temperature
Summary of the method: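 Enzyme (residues 29-480, C-terminal His tag) pre-activated by cathepsin L at 37° C, then quenched with E-64. Compound preincubated 15 min at room temperature in 25 mM MES pH 5.5 with 5 mM DTT, then 2 μM Bodipy FL-bradykinin added for 15 min at 833 ng/ml enzyme. Product/substrate separated by microfluidic capillary electrophoresis; IC50 from multi-concentration inhibition.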

SMILES	IC50 [nM]
COc1cccc([C@H](CC(=O)O)NC(=O)c2csc(-c3cccc(Cl)c3)n2)c1OC [Example 90, (S)-3-{[2-(3-Chloro-phenyl)-thiazole-4-carbonyl]-amino}-3-(2,3-dimethoxy-phenyl)-propionic acid]	1370
O=C(O)C[C@H](NC(=O)c1csc(-c2cccc(Cl)c2)n1)c1ccc(Cl)cc1Cl [Example 91, (S)-3-{[2-(3-Chloro-phenyl)-thiazole-4-carbonyl]-amino}-3-(2,4-dichloro-phenyl)-propionic acid]	1910
O=C(O)C[C@H](NC(=O)c1csc(-c2cccc(Cl)c2)n1)c1ccccc1F [Example 92, (S)-3-{[2-(3-Chloro-phenyl)-thiazole-4-carbonyl]-amino}-3-(2-fluoro-phenyl)-propionic acid]	1310
O=C(O)C[C@H](NC(=O)c1csc(-c2cccc(Cl)c2)n1)c1ccccc1C(F)(F)F [Example 93, (S)-3-{[2-(3-Chloro-phenyl)-thiazole-4-carbonyl]-amino}-3-(2-trifluoromethyl-phenyl)-propionic acid]	10400
O=C(O)C[C@H](NC(=O)c1csc(-c2cccc(Cl)c2)n1)c1cccc(F)c1 [Example 94, (S)-3-{[2-(3-Chloro-phenyl)-thiazole-4-carbonyl]-amino}-3-(3-fluoro-phenyl)-propionic acid]	3730
O=C(O)C[C@H](NC(=O)c1nc(-c2ccccc2)cs1)c1cccc(Cl)c1Cl [Example 95, (S)-3-(2,3-Dichloro-phenyl)-3-[(4-phenyl-thiazole-2-carbonyl)-amino]-propionic acid]	38
O=C(O)C[C@H](NC(=O)c1nc(-c2ccccc2)cs1)c1ccc(Cl)cc1Cl [Example 96, (S)-3-(2,4-Dichloro-phenyl)-3-[(4-phenyl-thiazole-2-carbonyl)-amino]-propionic acid]	254
O=C(O)C[C@H](NC(=O)c1nc(-c2ccccc2)cs1)c1ccc(C(F)(F)F)cc1 [Example 97, (S)-3-[(4-Phenyl-thiazole-2-carbonyl)-amino]-3-(4-trifluoromethyl-phenyl)-propionic acid]	406
Cc1ccccc1[C@H](CC(=O)O)NC(=O)c1csc(-c2cccc(Cl)c2)n1 [Example 98, (S)-3-{[2-(3-Chloro-phenyl)-thiazole-4-carbonyl]-amino}-3-o-tolyl-propionic acid]	660
O=C(O)C[C@H](NC(=O)c1nc(-c2ccccc2)cs1)c1cccc(C(F)(F)F)c1 [Example 99, (S)-3-[(4-Phenyl-thiazole-2-carbonyl)-amino]-3-(3-trifluoromethyl-phenyl)-propionic acid]	3310
O=C(O)C[C@H](NC(=O)c1csc(-c2ccc(Cl)cc2)n1)c1cccc(Cl)c1Cl [Example 100, (S)-3-{[2-(4-Chloro-phenyl)-thiazole-4-carbonyl]-amino}-3-(2,3-dichloro-phenyl)-propionic acid]	686
COc1cccc([C@H](CC(=O)O)NC(=O)c2csc(-c3ccc(Cl)cc3)n2)c1OC [Example 101, (S)-3-{[2-(4-Chloro-phenyl)-thiazole-4-carbonyl]-amino}-3-(2,3-dimethoxy-phenyl)-propionic acid]	1120
O=C(O)C[C@H](NC(=O)c1csc(-c2ccc(Cl)cc2)n1)c1ccc(Cl)cc1Cl [Example 102, (S)-3-{[2-(4-Chloro-phenyl)-thiazole-4-carbonyl]-amino}-3-(2,4-dichloro-phenyl)-propionic acid]	2680
O=C(O)[C@@H]1CN(C(=O)c2nc(-c3ccc(C(F)(F)F)cc3)cs2)C[C@H]1c1ccccc1 [Example 103, (3S,4R)-4-Phenyl-1-[4-(4-trifluoromethyl-phenyl)-thiazole-2-carbonyl]-pyrrolidine-3-carboxylic acid]	> 10000
O=C(O)C[C@H](NC(=O)c1csc(-c2ccc(Cl)cc2)n1)c1ccccc1C(F)(F)F [Example 104, (S)-3-{[2-(4-Chloro-phenyl)-thiazole-4-carbonyl]-amino}-3-(2-trifluoromethyl-phenyl)-propionic acid]	5390
O=C(O)C[C@H](NC(=O)c1csc(-c2ccc(Cl)cc2)n1)c1cccc(F)c1 [Example 105, (S)-3-{[2-(4-Chloro-phenyl)-thiazole-4-carbonyl]-amino}-3-(3-fluoro-phenyl)-propionic acid]	2960
COc1cccc([C@H](CC(=O)O)NC(=O)c2csc(-c3ccc(Cl)cc3)n2)c1 [Example 106, (S)-3-{[2-(4-Chloro-phenyl)-thiazole-4-carbonyl]-amino}-3-(3-methoxy-phenyl)-propionic acid]	17300
O=C(N[C@@H](Cc1ccc(Cl)cc1)C(=O)O)c1csc(-c2ccc(C(F)(F)F)cc2)n1 [Example 107, (S)-3-(4-Chloro-phenyl)-2-{[2-(4-trifluoromethyl-phenyl)-thiazole-4-carbonyl]-amino}-propionic acid]	3700

SMILES	IC50 [nM]
COc1ccc([C@H](CC(=O)O)NC(=O)c2csc(-c3ccc(Cl)cc3)n2)cc1 [Example 108, (S)-3-{[2-(4-Chloro-phenyl)-thiazole-4-carbonyl]-amino}-3-(4-methoxy-phenyl)-propionic acid]	3400
Cc1ccccc1[C@H](CC(=O)O)NC(=O)c1csc(-c2ccc(Cl)cc2)n1 [Example 109, (S)-3-{[2-(4-Chloro-phenyl)-thiazole-4-carbonyl]-amino}-3-o-tolyl-propionic acid]	121
O=C(O)C[C@H](NC(=O)c1csc(-c2ccc(Cl)cc2)n1)c1ccccc1 [Example 110, (S)-3-{[2-(4-Chloro-phenyl)-thiazole-4-carbonyl]-amino}-3-phenyl-propionic acid]	3880
Cc1ccccc1-c1nc(C(=O)N[C@@H](CC(=O)O)c2ccccc2C)cs1 [Example 111, (S)-3-o-Tolyl-3-[(2-o-tolyl-thiazole-4-carbonyl)-amino]-propionic acid]	106
Cc1ccccc1[C@H](CC(=O)O)NC(=O)c1csc(-c2ccc(C(F)(F)F)cc2)n1 [Example 112, (S)-3-o-Tolyl-3-{[2-(4-trifluoromethyl-phenyl)-thiazole-4-carbonyl]-amino}-propionic acid]	1310
Cc1ccccc1-c1nc(C(=O)N[C@@H](CC(=O)O)c2ccccc2)cs1 [Example 113, (S)-3-Phenyl-3-[(2-o-tolyl-thiazole-4-carbonyl)-amino]-propionic acid]	322
Cc1ccccc1-c1nc(C(=O)NCC(C(=O)O)c2ccccc2)cs1 (stereo not drawn) [Example 114, 2-Phenyl-3-[(2-o-tolyl-thiazole-4-carbonyl)-amino]-propionic acid]	7040
O=C(NCC(C(=O)O)c1ccccc1)c1csc(-c2ccccc2)n1 (stereo not drawn) [Example 115, 2-Phenyl-3-[(2-phenyl-thiazole-4-carbonyl)-amino]-propionic acid]	4880
O=C(NCC(C(=O)O)c1ccccc1)c1csc(-c2cccc(Cl)c2Cl)n1 (stereo not drawn) [Example 116, 3-{[2-(2,3-Dichloro-phenyl)-thiazole-4-carbonyl]-amino}-2-phenyl-propionic acid]	7710
O=C(O)CC(Cc1ccccc1)NC(=O)c1csc(-c2cccc(Cl)c2Cl)n1 (stereo not drawn) [Example 117, 3-{[2-(2,3-Dichloro-phenyl)-thiazole-4-carbonyl]-amino}-4-phenyl-butyric acid]	2750
O=C(NCC(C(=O)O)c1ccccc1)c1csc(-c2ccccc2Cl)n1 (stereo not drawn) [Example 118, 3-{[2-(2-Chloro-phenyl)-thiazole-4-carbonyl]-amino}-2-phenyl-propionic acid]	6040
O=C(O)CC(NC(=O)c1csc(-c2ccccc2Cl)n1)C1CCCCC1 (stereo not drawn) [Example 119, 3-{[2-(2-Chloro-phenyl)-thiazole-4-carbonyl]-amino}-3-cyclohexyl-propionic acid]	680
O=C(O)CC(Cc1ccccc1)NC(=O)c1csc(-c2ccccc2Cl)n1 (stereo not drawn) [Example 120, 3-{[2-(2-Chloro-phenyl)-thiazole-4-carbonyl]-amino}-4-phenyl-butyric acid]	1450
O=C(NCC(C(=O)O)c1ccccc1)c1csc(-c2ccccc2F)n1 (stereo not drawn) [Example 121, 3-{[2-(2-Fluoro-phenyl)-thiazole-4-carbonyl]-amino}-2-phenyl-propionic acid]	12600
O=C(O)CC(Cc1ccccc1)NC(=O)c1csc(-c2ccccc2F)n1 (stereo not drawn) [Example 122, 3-{[2-(2-Fluoro-phenyl)-thiazole-4-carbonyl]-amino}-4-phenyl-butyric acid]	4420
O=C(NCC(C(=O)O)c1ccccc1)c1csc(-c2cccc(Cl)c2)n1 (stereo not drawn) [Example 123, 3-{[2-(3-Chloro-phenyl)-thiazole-4-carbonyl]-amino}-2-phenyl-propionic acid]	> 10000
O=C(O)CC(NC(=O)c1csc(-c2cccc(Cl)c2)n1)C1CCCCC1 (stereo not drawn) [Example 124, 3-{[2-(3-Chloro-phenyl)-thiazole-4-carbonyl]-amino}-3-cyclohexyl-propionic acid]	3420
O=C(O)CC(Cc1ccccc1)NC(=O)c1csc(-c2cccc(Cl)c2)n1 (stereo not drawn) [Example 125, 3-{[2-(3-Chloro-phenyl)-thiazole-4-carbonyl]-amino}-4-phenyl-butyric acid]	9060
